#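 Here, GI50 denotes the concentration required for 50% inhibition of growth. TGI: total growth inhibition.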
# Legend:
# Experiment in all cases: NCI-60 cell line screen, 384-well format
# RXF 393 renal = tested on: RXF 393 renal
# DU-145 prostate = tested on: DU-145 prostate
# NCI-H322M lung = tested on: NCI-H322M lung
# OVCAR-8 ovarian = tested on: OVCAR-8 ovarian
# MALME-3M melanoma = tested on: MALME-3M melanoma
# SF-295 CNS = tested on: SF-295 CNS
# HL-60(TB) leukemia = tested on: HL-60(TB) leukemia
# MDA-MB-231 breast = tested on: MDA-MB-231 breast
# SR leukemia = tested on: SR leukemia
# LOX IMVI melanoma = tested on: LOX IMVI melanoma
# HT29 colon = tested on: HT29 colon
# A498 renal = tested on: A498 renal
# CAKI-1 renal = tested on: CAKI-1 renal
smiles,measurement,setting,value
C[C@H]1C[C@@H](n2c(Nc3ccc(OC(F)(F)F)cc3)nc3cc(CCC(=O)O)ccc32)CC(C)(C)C1,GI50,RXF 393 renal,13 µM
same,TGI,RXF 393 renal,25.7 µM
same,GI50,DU-145 prostate,11.8 µM
same,TGI,DU-145 prostate,24.2 µM
same,GI50,NCI-H322M lung,17 µM
same,TGI,NCI-H322M lung,30.9 µM
same,GI50,OVCAR-8 ovarian,9.58 µM
same,TGI,OVCAR-8 ovarian,22 µM
same,GI50,MALME-3M melanoma,18.3 µM
same,TGI,MALME-3M melanoma,32.4 µM
same,GI50,SF-295 CNS,11.8 µM
same,TGI,SF-295 CNS,24.2 µM
same,GI50,HL-60(TB) leukemia,8.07 µM
same,TGI,HL-60(TB) leukemia,17.7 µM
same,GI50,MDA-MB-231 breast,16.4 µM
same,TGI,MDA-MB-231 breast,30 µM
same,GI50,SR leukemia,7 µM
same,TGI,SR leukemia,20 µM
same,GI50,LOX IMVI melanoma,16.7 µM
same,TGI,LOX IMVI melanoma,30.5 µM
same,GI50,HT29 colon,12.7 µM
same,TGI,HT29 colon,25.6 µM
same,GI50,A498 renal,13.3 µM
same,TGI,A498 renal,26.2 µM
same,GI50,CAKI-1 renal,17.2 µM
same,TGI,CAKI-1 renal,31 µM
